Each structure is given as a SMILES string. pIC50: −log10 of the molar value.

Consider 17 compounds from patent US7018796B2, “Preincubation assay methods” (Shionogi & Co., Ltd., priority 2000, dated 2006).

The target of the experiment is T1, HCV RNA-dependent RNA polymerase (Hepatitis C virus genotype 1a, UniProt P27958).
T1 construct: HCV RNA-dependent RNA polymerase is encoded in the NS5B (nonstructural protein 5B) region of HCV; made in house; host or cells: insect cells or E. coli
Nature of the experiment: Pre-incubation assay method with 3H-UTP (Example 1). Format: biochemical. The conditions noted are these: pre-incubation 25° C. 60 min, method of Example 1; for inhibition at 100 µg/mL: 100 μg/ml, read-out: Inhibition rate at a concentration of 100 μg/ml. The protocol: A HCV RNA-dependent RNA polymerase, template RNA, primer RNA and Mg ion (Mg^2+) are pre-incubated at approximately 25° C. for approximately 1 hour. After that, substrate RNA and a test substance are added to start an enzyme reaction and measure an enzyme activity. IC50 value can be calculated by comparing with an enzyme activity measured in the absence of a test substance as well as the above prior method. An inhibitor can be selected by comparing IC50. An example of a procedure of this method is shown in the later described Example 1.
A cDNA encoding HCV RNA-dependent RNA polymerase was made by use of HCV positive human plasma and HCV RNA-dependent RNA polymerase was expressed using the insect cells or the E. coli. HCV RNA-dependent RNA polymerase in the cell extract was purified by use of an anion exchange chromatography, a heparin affinity chromatography, a polyU affinity chromatography, a cation exchange chromatography and gel filtration chromatography. The purification was performed at 4° C. and Tris buffer (pH 7.5) containing ethylenediaminetetraacetic acid (1 mM), dithiothreitol (10 mM) and glycerol (20%) was used. The enzyme purified was stored at 4° C. until use for the assays.
• 1) The buffer I ^1) (10.5 μl) containing Tris-HCl (100 mM, pH 7.5), MgCl2 (25 mM), dithiothreitol (5 mM), KCl (125 mM) and ethylenediaminetetraacetic acid (5 mM) was transferred to a polypropylene tube and then poly(A)^2) solution (100 μg/ml, 10.5 μl), oligo(U)12 ^3) solution (1 μg/ml, 10.5 μl) and water (8 μl) were added into the tube and mixed. • 2) Next, HCV RNA-dependent RNA polymerase (10.5 μl) was added into the tube and pre-incubated at 25° C. for […]. • 3) The enzyme solution pre-incubated (50 μl) was added to a test compound (5.26 μl/well) dissolved with dimethyl sulfoxide or water in a well of a 96-wells microtiter plate. • 4) Additionally, the buffer II (10.6 μl) containing Tris-HCl (100 mM, pH 7.5), MgCl2 (25 mM), dithiothreitol (5 mM), KCl (125 mM), ethylenediaminetetraacetic acid (5 mM) and UTP • 4) (2.1 μM, 1 μCi ^3H-UTP), was mixed with water (39.4 μl). The mixture (50 μl) was added into the well and mix, and then the enzyme reaction was performed at 25° C. for 30 min. • 5) After enzyme reaction for 30 min, the enzyme reaction was stopped by adding disodium ethylenediaminetetraacetic acid (50 mM, 50 μl). • 6) By use of the cell-harvester, all volume of the enzyme reaction sample was transferred onto a filtermat bound with diethylaminoethyl base (referred to as DEAE-filtermat) and washed twice for 10 sec with sodium phosphate buffer (0.25 M, pH 7.0) and once for 10 sec with de-ionized water. • 7) The DEAE-filtermat was dried at 95° C. for 15 min and transferred into a sample bag with liquid scintillater (10 ml), and then a sample bag was sealed. • 8) The radio activity was measured by a scintillation counter. • 9) The inhibitory rate was calculated from the radioactivity measured (ccpm) as follows. [formula]
The concentration of compound at 50% inhibition (IC50 value) was calculated from the compound concentration used and the inhibitory rate calculated.
When use of a compound at a μg/ml results in A % inhibition and use of a compound at β μg/ml results in B % inhibition on condition of A≧50>B the IC50 value is obtained by the calculation as follows. IC50 (μg/ml)=10^[(50−B)/(A−B)×(log^α^−log^β^)+log^β^]

T1 sequence (P27958 2421-3011): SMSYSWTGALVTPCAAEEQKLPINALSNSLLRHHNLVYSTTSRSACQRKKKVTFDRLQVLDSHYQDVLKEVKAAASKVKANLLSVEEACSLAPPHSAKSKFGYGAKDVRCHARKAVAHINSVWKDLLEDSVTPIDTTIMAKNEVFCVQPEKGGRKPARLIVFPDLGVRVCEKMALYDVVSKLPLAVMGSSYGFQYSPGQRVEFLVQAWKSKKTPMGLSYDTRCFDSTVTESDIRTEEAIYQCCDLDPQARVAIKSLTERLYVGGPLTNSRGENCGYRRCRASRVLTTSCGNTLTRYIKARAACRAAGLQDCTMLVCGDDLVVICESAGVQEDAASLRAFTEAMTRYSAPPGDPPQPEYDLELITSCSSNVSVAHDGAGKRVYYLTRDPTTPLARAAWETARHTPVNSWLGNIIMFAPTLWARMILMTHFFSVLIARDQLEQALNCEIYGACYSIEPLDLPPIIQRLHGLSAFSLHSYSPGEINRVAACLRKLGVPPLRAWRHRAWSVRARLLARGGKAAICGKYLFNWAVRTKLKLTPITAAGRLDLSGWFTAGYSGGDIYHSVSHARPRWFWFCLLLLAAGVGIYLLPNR

For orientation: pIC50 means the negative decadic logarithm of the IC50, by convention in mol/L. The low end stands for a large IC50, the high end for a small IC50. With `O=C(O)C(O)=CC(=O)c1ccc(Cl)cc1Cl` [Compound I-18], the inhibition at 100 µg/mL was found to be 90% and the pIC50 was 4.30.
Regarding `Cc1ccc(C(=O)C=C(O)C(=O)O)s1` [Compound I-6], the inhibition at 100 µg/mL was found to be 97% and the pIC50 was 4.84.
The matching figures for `O=C(O)C(O)=CC(=O)c1ccccc1` [Compound I-5]: 98% and 4.92.
With `O=C(O)C(O)=CC(=O)c1ccc(O)cc1` [Compound I-2], the inhibition at 100 µg/mL came to 99% and the pIC50 is 5.36.
The corresponding values for `COc1cccc(C(=O)C=C(O)C(=O)O)c1` [Compound I-12] are 94% and 4.42.
`O=C(O)C(O)=CC(=O)c1ccc(F)cc1` [Compound I-11]: the inhibition at 100 µg/mL came out at 94% and the pIC50 is 4.45.
The corresponding values for `COc1cc(C(=O)C=C(O)C(=O)O)ccc1O` [Compound I-17] are 92% and 4.34.
As to `O=C(O)C(O)=CC(=O)c1ccc2ccccc2c1` [Compound I-7], the inhibition at 100 µg/mL is 95% and the pIC50 is 4.55.
`O=C(O)C(O)=CC(=O)c1cccs1` [Compound I-13]: the inhibition at 100 µg/mL is 92% and the pIC50 was 4.36.
As for `Cn1cccc1C(=O)C=C(O)C(=O)O` [Compound I-15], the inhibition at 100 µg/mL was 94% and the pIC50 was 4.30.
On to `Nc1ccc(C(=O)C=C(O)C(=O)O)cc1` [Compound I-4], for which the inhibition at 100 µg/mL was greater than 99% and the pIC50 is 5.17.
On to `Cc1ccc(C(=O)C=C(O)C(=O)O)cc1` [Compound I-3], for which the inhibition at 100 µg/mL is 99% and the negative logarithm of the IC50 (pIC50) was 5.31.
On to `O=C(O)C(O)=CC(=O)c1ccsc1` [Compound I-10], for which the inhibition at 100 µg/mL amounted to 94% and the pIC50 was 4.44.
The corresponding values for `O=C(O)C(O)=CC(=O)c1ccc(Cl)cc1` [Compound I-9] are 94% and 4.50.
Regarding `O=C(O)C(O)=CC(=O)c1cccc(Br)c1` [Compound I-14], the inhibition at 100 µg/mL is 93% and the pIC50 is 4.48.
For the compound `O=C(O)C(O)=CC(=O)c1cc2ccccc2[nH]1` [Compound I-8], the inhibition at 100 µg/mL was found to be 95% and the pIC50 was 4.53.
In the case of `O=C(O)C(O)=CC(=O)c1ccc[nH]1` [Compound I-16], the inhibition at 100 µg/mL came to 92% and the pIC50 was 4.26.
